# Test results published in patent publication US12187713B2, “Immunomodulators, compositions and methods thereof” (Betta Pharmaceuticals Co., Ltd, priority 2019, dated 2025).
# Biological target: PD-1/PD-L1 (Homo sapiens (Human), UniProt Q9NZQ7)
# Experiment: PD-1/PD-L1 Binding Assay (Alphascreen)
# Method in brief: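 PD-1/PD-L1 binding detected by anti-6×His acceptor and streptavidin donor beads after 120 min in the dark at 25 °C. Beforehand, the two proteins were incubated 15 min at 25 °C with inhibitor at 0.015–300 nM (1% DMSO). IC50 comes from a log concentration–response curve.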
# Sequence of PD-1/PD-L1 (Q9NZQ7 19-238): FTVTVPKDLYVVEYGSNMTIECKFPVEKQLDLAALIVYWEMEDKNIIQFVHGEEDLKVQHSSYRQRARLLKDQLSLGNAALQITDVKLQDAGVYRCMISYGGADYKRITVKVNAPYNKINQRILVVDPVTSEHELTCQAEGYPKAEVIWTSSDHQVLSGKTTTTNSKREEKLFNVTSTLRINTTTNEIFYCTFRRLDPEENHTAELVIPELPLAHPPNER
SMILES,IC50 (numeric values),IC50 (range symbols)
"Cc1c(Nc2nccc3cc(CN4CCCC[C@H]4C(=O)O)cnc23)cccc1-c1cccc(-c2nc3cc(CN4CCC[C@H]4C(=O)O)c(OC(F)F)cc3o2)c1C [Example 173, (S)-1-((8-((3′-(5-(((S)-2-carboxypyrrolidin-1-yl)methyl)-6-(difluoromethoxy)benzo[d]oxazol-2-yl)-2,2′-dimethyl-[1,1′-biphenyl]-3-yl)amino)-1,7-naphthyridin-3-yl)methyl)piperidine-2-carboxylic acid]",0.93 nM,
Cc1c(-c2nc3cc(CN4CCC[C@H]4C(=O)O)c(OC(F)F)cc3o2)cccc1-c1cccc(-c2nc3cc(CNCC4CNC4)cc(C#N)c3o2)c1C [Example 157],,0.1 to 5 nM
"Cc1c(-c2nc3cc(CN4CC5CCCC5C4)c(OC(F)F)cc3o2)cccc1-c1cccc(-c2nc3cc(CN4CCC[C@H]4C(=O)O)c(OC(F)F)cc3o2)c1C (stereo partly drawn) [Example 49, ((6-(difluoromethoxy)-2-(3′-(6-(difluoromethoxy)-5-((hexahydrocyclopenta [c]pyrrol-2(1H)-yl)methyl)benzo[d]oxazol-2-yl)-2,2′-dimethyl-[1,1′-biphenyl]-3-yl)benzo[d]oxazol-5-yl)methyl)-L-proline]",,0.1 to 5 nM
"CCCNCCCN(C)Cc1cc2nc(-c3cccc(-c4cccc(-c5nc6cc(CN7CCC[C@H]7C(=O)O)c(OC(F)F)cc6o5)c4C)c3C)oc2cc1OC(F)F [Example 53, ((6-(difluoromethoxy)-2-(3′-(6-(difluoromethoxy)-5-((methyl(3-(propylamino)propyl)amino)methyl)benzo [d]oxazol-2-yl)-2,2′-dimethyl-[1,1′-biphenyl]-3-yl)benzo[d]oxazol-5-yl)methyl)-L-proline]",,0.1 to 5 nM
"Cc1c(-c2ccc(CN3CCCC3)c(C(=O)O)c2)cccc1-c1cccc(-c2nc3cc(CN4CCC[C@H]4C(=O)O)c(OC(F)F)cc3o2)c1C [Example 236, ((2-(3″-carboxy-2,2′-dimethyl-4″-(pyrrolidin-1-ylmethyl)-[1,1′:3′,1″-terphenyl]-3-yl)-6-(difluoromethoxy)benzo[d]oxazol-5-yl)methyl)-L-proline]",290 nM,
"Cc1c(-c2nc3cc(CN4CCC[C@H]4C(=O)O)c(OC(F)F)cc3o2)cccc1-c1cccc(-c2nc3cc(CN4CC5(CNC(=O)C5)C4)cc(C#N)c3o2)c1C [Example 146, ((2-(3′-(7-cyano-5-((7-oxo-2,6-diazaspiro[3.4]octan-2-yl)methyl)benzo[d]oxazol-2-yl)-2,2′-dimethyl-[1,1′-biphenyl]-3-yl)-6-(difluoromethoxy)benzo[d]oxazol-5-yl)methyl)-L-proline]",,0.1 to 5 nM
Cc1c(-c2nc3cc(CN4CCC[C@H]4C(=O)O)c(OC(F)F)cc3o2)cccc1-c1cccc(-c2nc3cc(CN4CC(C)C(N)C4)cc(C#N)c3o2)c1C (some centres unmarked) [Example 156],,0.1 to 5 nM
"Cc1c(-c2ccc([C@H](N)C(=O)O)cc2)cccc1-c1cccc(-c2nc3cc(CN4CCC[C@H]4C(=O)O)c(OC(F)F)cc3o2)c1C [Example 256, ((2-(4″-((S)-amino(carboxy)methyl)-2,2′-dimethyl-[1,1′:3′,1″-terphenyl]-3-yl)-6-(difluoromethoxy)benzo[d]oxazol-5-yl)methyl)-L-proline]",,> 50 nM
"Cc1c(-c2nc3cc(CN4CCC[C@H]4C(=O)O)c(OC(F)F)cc3o2)cccc1-c1cccc(-c2nc3cc(CN4CC(N(C)C5COC5)C4)cc(C#N)c3o2)c1C [Example 149, ((2-(3′-(7-cyano-5-((3-(methyl(oxetan-3-yl)amino)azetidin-1-yl)methyl)benzo[d]oxazol-2-yl)-2,2′-dimethyl-[1,1′-biphenyl]-3-yl)-6-(difluoromethoxy)benzo[d]oxazol-5-yl)methyl)-L-proline]",,0.1 to 5 nM

# Now from value to compound:
IC50 (numeric values),IC50 (range symbols),SMILES
,0.1 to 5 nM,"Cc1c(-c2nc3cc(CN4CCC[C@H]4C(=O)O)c(OC(F)F)cc3o2)cccc1-c1cccc(-c2nc3cc(CN4CC[C@@H](CF)C4)cc(C#N)c3o2)c1C [Example 168, ((2-(3′-(7-cyano-5-(((R)-3-(fluoromethyl)pyrrolidin-1-yl)methyl)benzo[d]oxazol-2-yl)-2,2′-dimethyl-[1,1′-biphenyl]-3-yl)-6-(difluoromethoxy)benzo[d]oxazol-5-yl)methyl)-L-proline]"
2.4 nM,,"Cc1c(-c2nc3cc(CN4CCC[C@H]4C(=O)O)c(OC(F)F)cc3o2)cccc1-c1cccc(-c2nc3cc(CN4CCC45COC5)c(OC(F)F)cc3o2)c1C [Example 39, ((2-(3′-(5-((6-oxa-1-azaspiro[3.3]heptan-1-yl)methyl)-6-(difluoromethoxy)benzo[d]oxazol-2-yl)-2,2′-dimethyl-[1,1′-biphenyl]-3-yl)-6-(difluoromethoxy)benzo[d]oxazol-5-yl)methyl)-L-proline]"
1.1 nM,,"Cc1c(-c2nc3cc(CN4CC(C)(O)C4)c(OC(F)F)cc3o2)cccc1-c1cccc(-c2nc3cc(CN4CCC[C@H]4C(=O)O)c(OC(F)F)cc3o2)c1C [Example 44, ((6-(difluoromethoxy)-2-(3′-(6-(difluoromethoxy)-5-((3-hydroxy-3-methylazetidin-1-yl)methyl)benzo[d]oxazol-2-yl)-2,2′-dimethyl-[1,1′-biphenyl]-3-yl)benzo[d]oxazol-5-yl)methyl)-L-proline]"
,5 to 50 nM,"Cc1c(-c2nc3c(o2)CCN(CCCF)C3)cccc1-c1cccc(-c2nc3cc(CN4CCC[C@H]4C(=O)O)c(OC(F)F)cc3o2)c1C [Example 200, ((6-(difluoromethoxy)-2-(3′-(5-(3-fluoropropyl)-4,5,6,7-tetrahydrooxazolo[4,5-c]pyridin-2-yl)-2,2′-dimethyl-[1,1′-biphenyl]-3-yl)benzo[d]oxazol-5-yl)methyl)proline]"
,5 to 50 nM,"Cc1c(-c2nc3cc(CN4CCC[C@H]4C(=O)O)c(OC(F)F)cc3o2)cccc1-c1cccc(-c2nc3cc(CN4CC[C@@H](CO)C4)cc(C#N)c3o2)c1C [Example 154, ((2-(3′-(7-cyano-5-(((R)-3-(hydroxymethyl)pyrrolidin-1-yl)methyl)benzo [d]oxazol-2-yl)-2,2′-dimethyl-[1,1′-biphenyl]-3-yl)-6-(difluoromethoxy)benzo[d]oxazol-5-yl)methyl)-L-proline]"
,0.1 to 5 nM,"Cc1c(-c2nc3cc(CN4CCC45CCC5)ccc3o2)cccc1-c1cccc(-c2nc3cc(CN4CCC[C@H]4C(=O)O)c(OC(F)F)cc3o2)c1C [Example 107, ((2-(3′-(5-((1-azaspiro[3.3]heptan-1-yl)methyl)benzo[d]oxazol-2-yl)-2,2′-dimethyl-[1,1′-biphenyl]-3-yl)-6-(difluoromethoxy)benzo[d]oxazol-5-yl)methyl)-L-proline]"
0.5 nM,,"Cc1c(-c2nc3cc(CN4CCC[C@H]4C(=O)O)c(OC(F)F)cc3o2)cccc1-c1cccc(-c2nc3cc(CN4CC(C)(C)C4)cnc3o2)c1C [Example 113, ((6-(difluoromethoxy)-2-(3′-(6-((3,3-dimethylazetidin-1-yl)methyl)oxazolo[5,4-b]pyridin-2-yl)-2,2′-dimethyl-[1,1′-biphenyl]-3-yl)benzo[d]oxazol-5-yl)methyl)-L-proline]"
,5 to 50 nM,"Cc1c(-c2nc3cc(CN4CC(=O)C4)c(OC(F)F)cc3o2)cccc1-c1cccc(-c2nc3cc(CN4CCC[C@H]4C(=O)O)c(OC(F)F)cc3o2)c1C [Example 46, ((6-(difluoromethoxy)-2-(3′-(6-(difluoromethoxy)-5-((3-oxoazetidin-1-yl)methyl)benzo[d]oxazol-2-yl)-2,2′-dimethyl-[1,1′-biphenyl]-3-yl)benzo[d]oxazol-5-yl)methyl)-L-proline]"
